Measurements reported in publication PMC9137698, “Development of New Antimycobacterial Sulfonyl Hydrazones and 4-Methyl-1,2,3-thiadiazole-Based Hydrazone Derivatives” (Antibiotics, 2022).
In brackets after ≈: the same amount, converted by molar mass. Where two headings read alike, the source gives them in different places.

Legend:
[1] = test system: M. tuberculosis strain H37Rv; test: EUCAST broth microdilution MIC determination; assay type: cell-based, Mycobacterium tuberculosis
[2] = test system: HEK-293 (human embryonic kidney 293) cells; test: MTT cytotoxicity assay, HEK-293; assay type: cell-based; conditions: for selectivity index SI, HEK-293 / selectivity indices (SI): ratio of IC50 to MIC; for IC50: Homo sapiens; for selectivity indices (SI): both cell lines HEK-293 and CCL-1
Protocol: (§1) The cytostatic activity of the investigational compounds was determined using a standard MTT-based colorimetric assay for evaluating cell viability. HEK-293 and CCL-1 cells were harvested and seeded (100 µL/well) in 96-well plates at a density of 3 × 10^5. Following a 24 h incubation, the cells were treated with serial dilutions of the tested compounds in the concentration range of 200.0–12.5 µM. Following an exposure time of 72 h, a filter-sterilized MTT substrate solution (5 mg/mL in PBS) was added to each well of the culture plate. A further 1–4 h incubation allowed the formation of purple insoluble precipitates of the formazan dye. The latter was dissolved in an isopropyl alcohol solution containing 5% formic acid for absorbance measurement at 550 nm. The collected absorbance values were blanked against MTT-and isopropanol solution and normalized to the mean value of the untreated control (100% cell viability).
(§2) Semi-logarithmic “dose-response” curves were computed using nonlinear regression in GraphPad Prism® 8.0. The antiproliferative potential of the studied compounds was rated according to the calculated half-maximal inhibitory concentrations (IC50 values).

[3] = test system: CCL-1 mouse fibroblast cell line; test: MTT cytotoxicity assay, CCL-1; assay type: cell-based; conditions: for selectivity index SI, CCL-1: ratio of IC50 to MIC; for IC50: Mus musculus
Protocol: as §1, §2

[4] = M. tuberculosis strain H37Rv, lowest concentration without visual growth, read-out: MIC a
[5] = Mycobacterium tuberculosis, H37RV, M. tuberculosis strain H37Rv, lowest concentration without visual growth, read-out: MIC a
[6] = HEK293, 72 h, read-out: IC50 (µM) c HEK-293
[7] = Mycobacterium tuberculosis, H37RV, read-out: MIC a (µM)
[8] = CCL-1, 72 h, read-out: IC50 (µM) b CCL-1

## Cc1nnsc1C(=O)N/N=C/c1c(Cl)c2ccccc2oc1=O [3a, N’-[(E)-(4-chloro-2-oxo-2H-1-benzopyran-3-yl)methylidene]-4-methyl-1,2,3-thiadiazole-5-carbohydrazide]
[1]; [4]
  MIC: 0.3914 µM (≈ 0.137 µg/mL)
[1]; [5]
  MIC: < 0.4 µM

## COc1ccc2c(c1)c(/C=N/NC(=O)c1snnc1C)cn2C [3b, N’-[(E)-(5-methoxy-1-methyl-1H-indol-3-yl)methylidene]-4-methyl-1,2,3-thiadiazole-5-carbohydrazide]
[1]; [4]
  MIC: 0.3294 µM (≈ 0.108 µg/mL)
[1]; [5]
  MIC: < 0.4 µM

## Cc1nnsc1C(=O)N/N=C/c1c[nH]c2ccc(OCc3ccccc3)cc12 [3c, N’-((E)-[5-(benzyloxy)-1H-indol-3-yl]methylidene)-4-methyl-1,2,3-thiadiazole-5-carbohydrazide]
[2]; as assigned in running text
  selectivity index SI, HEK-293: 2242
[3]; as assigned in running text
  selectivity index SI, CCL-1: 4093

## COc1cc(/C=N/NC(=O)c2snnc2C)ccc1O [3d, N’-[(E)-(4-hydroxy-3-methoxyphenyl)methylidene]-4-methyl-1,2,3-thiadiazole-5-carbohydrazide]
[2]; HEK293, MTT, as assigned in running text, read-out: IC50, human embryonic kidney cells HEK-29
  IC50: 257 µM
[2]; as assigned in running text
  selectivity index SI, HEK-293: 3516
[1]; [5]
  MIC: < 0.1 µM
[3]; Fibroblast, MTT, as assigned in running text, read-out: IC50, mouse fibroblast cells CCL-1
  IC50: 218 µM
[3]; as assigned in running text
  selectivity index SI, CCL-1: 2979

## COc1ccc2c(c1)c(/C=N/NS(=O)(=O)c1ccccc1)cn2C [5b, N’-[(E)-(5-methoxy-1-methyl-1H-indol-3-yl)methylidene]benzenesulfonohydrazide]
[1]; [4]
  MIC: 0.2027 µM (≈ 0.0696 µg/mL)
[1]; [5]
  MIC: < 0.4 µM

## O=S(=O)(N/N=C/c1c[nH]c2ccc(OCc3ccccc3)cc12)c1ccccc1 [5c]
[2]; [6]
  IC50: 32.3 ± 1.5 µM
[1]; [7]
  MIC: 0.343 µM (≈ 0.139 µg/mL)
[3]; [8]
  IC50: 321 ± 16.2 µM

## O=S(=O)(N/N=C/c1c[nH]c2ccc(Cl)cc12)c1ccccc1 [5d, N’-[(E)-(5-chloro-1H-indol-3-yl)methylidene]benzenesulfonohydrazide]
[1]; [5]
  MIC: 0.167 µM (≈ 0.0557 µg/mL)

## COc1ccc2[nH]cc(/C=N/NS(=O)(=O)c3ccccc3)c2c1 [5e, N’-[(E)-(5-methoxy-1H-indol-3-yl)methylidene]benzenesulfonohydrazide]
[1]; [5]
  MIC: 0.165 µM (≈ 0.0542 µg/mL)

## O=[N+]([O-])c1ccccc1/C=N/NS(=O)(=O)c1ccccc1 [5f, N’-[(E)-(2-nitrophenyl)methylidene]benzenesulfonohydrazide]
[1]; [5]
  MIC: 0.305 µM (≈ 0.0932 µg/mL)

## O=[N+]([O-])c1ccc(/C=N/NS(=O)(=O)c2ccccc2)cc1 [5g, N’-[(E)-(4-nitrophenyl)methylidene]benzenesulfonohydrazide]
[2]
  selectivity indices (SI): > 1000
[1]; [5]
  MIC: < 0.1 µM

## O=S(=O)(N/N=C/c1ccc(Cl)cc1)c1ccccc1 [5i, N’-[(E)-(4-chlorophenyl)methylidene]benzenesulfonohydrazide]
[2]; [6]
  IC50: 100 ± 9.3 µM
[1]; [7]
  MIC: 0.147 µM (≈ 0.0434 µg/mL)
[3]; [8]
  IC50: 131 ± 11.4 µM

## COc1ccc(/C=N/NS(=O)(=O)c2ccccc2)cc1OC [5j, N’-[(E)-(3,4-dimethoxyphenyl)methylidene]benzenesulfonohydrazide]
[2]; [6]
  IC50: 47.4 ± 6.8 µM
[1]; [7]
  MIC: 0.321 µM (≈ 0.103 µg/mL)
[3]; [8]
  IC50: 83.5 ± 7 µM

## O=S(=O)(N/N=C/C=C/c1ccccc1)c1ccccc1 [5k, N’-[(1E,2E)-3-phenylprop-2-en-1-ylidene]benzenesulfonohydrazid]
[2]; as assigned in running text
  selectivity index SI, HEK-293: 3380
[2]
  selectivity indices (SI): > 1000
[1]; [5]
  MIC: < 0.1 µM
[3]; as assigned in running text
  selectivity index SI, CCL-1: 2216

## NNC(=O)c1ccncc1 [INH, isoniazid, reference compound]
[1]; [5]
  MIC: 0.0343 µM (≈ 0.0047 µg/mL)

## N’-[(E)-(3-hydroxy-4-methoxyphenyl)methylidene]benzenesulfonohydrazide [5h]
[1]; [4]
  MIC: 0.3203 µM
